# pIC50: −log10 of the molar value.
# What was measured:
# JAK1 = JAK1 (Homo sapiens (Human), UniProt P23458); experiment: Assay A, JAK1 IC50 at 1 mM ATP; type: biochemical; details: method of Assay A at 1 mM ATP; #3 data for enantiomer 1, #14 data for enantiomer 2
# JAK2 = JAK2 (Homo sapiens (Human), UniProt O60674); experiment: Assay A, JAK2 versus JAK1 (ratio); type: biochemical; details: ratio of IC50s, Assay A at 1 mM ATP
# Chain of JAK2 (O60674 whole entry, species assumed): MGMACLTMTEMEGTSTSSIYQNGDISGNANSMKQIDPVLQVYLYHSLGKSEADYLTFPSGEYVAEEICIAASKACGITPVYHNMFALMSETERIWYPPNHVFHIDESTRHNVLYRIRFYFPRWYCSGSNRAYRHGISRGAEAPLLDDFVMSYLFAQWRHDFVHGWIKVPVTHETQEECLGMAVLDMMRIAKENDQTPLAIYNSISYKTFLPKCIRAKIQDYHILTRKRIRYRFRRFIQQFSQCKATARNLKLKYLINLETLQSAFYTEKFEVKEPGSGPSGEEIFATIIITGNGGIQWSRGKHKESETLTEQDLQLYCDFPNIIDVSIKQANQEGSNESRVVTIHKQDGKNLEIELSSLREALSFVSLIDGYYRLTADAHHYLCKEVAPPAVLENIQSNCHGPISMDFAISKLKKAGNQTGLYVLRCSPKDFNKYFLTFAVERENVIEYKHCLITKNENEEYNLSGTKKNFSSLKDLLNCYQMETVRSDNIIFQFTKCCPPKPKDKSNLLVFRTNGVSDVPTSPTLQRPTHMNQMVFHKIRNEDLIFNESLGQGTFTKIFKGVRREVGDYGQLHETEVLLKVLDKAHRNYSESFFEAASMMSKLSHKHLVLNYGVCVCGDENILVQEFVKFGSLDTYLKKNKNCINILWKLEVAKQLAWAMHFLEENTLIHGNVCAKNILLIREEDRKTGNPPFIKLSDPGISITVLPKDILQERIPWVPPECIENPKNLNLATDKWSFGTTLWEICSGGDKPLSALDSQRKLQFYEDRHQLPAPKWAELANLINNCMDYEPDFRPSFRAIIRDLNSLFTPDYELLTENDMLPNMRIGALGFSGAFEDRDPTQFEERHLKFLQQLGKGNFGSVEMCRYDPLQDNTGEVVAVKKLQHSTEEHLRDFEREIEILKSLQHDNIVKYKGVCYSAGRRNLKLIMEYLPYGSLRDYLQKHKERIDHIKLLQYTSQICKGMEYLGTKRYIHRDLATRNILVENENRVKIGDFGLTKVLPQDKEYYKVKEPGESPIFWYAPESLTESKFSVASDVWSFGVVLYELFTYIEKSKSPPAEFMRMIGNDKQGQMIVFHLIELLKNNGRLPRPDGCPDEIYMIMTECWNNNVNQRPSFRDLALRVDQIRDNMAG
# Chain of JAK1 (P23458 whole entry, species assumed): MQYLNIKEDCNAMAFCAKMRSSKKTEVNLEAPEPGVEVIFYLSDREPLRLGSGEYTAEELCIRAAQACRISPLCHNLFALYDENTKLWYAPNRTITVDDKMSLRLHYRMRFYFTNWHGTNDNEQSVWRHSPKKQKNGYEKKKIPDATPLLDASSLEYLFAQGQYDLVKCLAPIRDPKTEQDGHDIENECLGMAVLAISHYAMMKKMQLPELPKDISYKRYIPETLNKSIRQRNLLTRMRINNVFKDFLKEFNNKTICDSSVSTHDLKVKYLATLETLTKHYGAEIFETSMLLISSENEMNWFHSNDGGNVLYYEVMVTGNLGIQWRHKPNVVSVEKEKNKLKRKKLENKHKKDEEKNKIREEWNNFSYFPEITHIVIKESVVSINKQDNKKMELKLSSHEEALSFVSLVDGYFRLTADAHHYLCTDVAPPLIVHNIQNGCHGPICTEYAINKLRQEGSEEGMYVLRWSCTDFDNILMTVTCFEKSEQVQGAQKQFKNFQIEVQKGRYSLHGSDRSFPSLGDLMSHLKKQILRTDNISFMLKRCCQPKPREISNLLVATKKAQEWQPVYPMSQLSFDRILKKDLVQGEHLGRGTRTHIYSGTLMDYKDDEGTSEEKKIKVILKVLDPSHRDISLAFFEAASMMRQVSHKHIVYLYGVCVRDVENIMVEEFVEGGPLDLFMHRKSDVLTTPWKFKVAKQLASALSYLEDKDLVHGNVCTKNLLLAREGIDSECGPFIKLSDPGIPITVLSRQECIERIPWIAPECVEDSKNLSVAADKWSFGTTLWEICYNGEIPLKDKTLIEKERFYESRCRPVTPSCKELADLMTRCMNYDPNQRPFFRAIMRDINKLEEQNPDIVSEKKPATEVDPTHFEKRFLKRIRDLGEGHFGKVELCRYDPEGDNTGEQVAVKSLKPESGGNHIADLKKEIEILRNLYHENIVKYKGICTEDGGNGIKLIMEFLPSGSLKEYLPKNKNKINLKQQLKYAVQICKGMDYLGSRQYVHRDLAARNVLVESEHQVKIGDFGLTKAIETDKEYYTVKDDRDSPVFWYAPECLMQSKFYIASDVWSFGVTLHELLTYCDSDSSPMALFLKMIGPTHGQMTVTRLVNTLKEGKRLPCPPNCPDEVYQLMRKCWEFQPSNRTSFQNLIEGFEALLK
SMILES,pIC50 (JAK1),JAK2/JAK1 (JAK2)
"N#CC[C@]1(n2cc(-c3ncnc4[nH]ccc34)cn2)C[C@H](N2CCC(Oc3cc(CCO)cc(C(F)(F)F)n3)CC2)C1 [Example 26, {trans-3-(4-{[4-(2-hydroxyethyl)-6-(trifluoromethyl)pyridin-2-yl]oxy}piperidin-1-yl)-1-[4-(7H-pyrrolo[2,3-d]pyrimidin-4-yl)-1H-pyrazol-1-yl]cyclobutyl}acetonitrile]",> 8.00,>10
"C[C@@H](O)c1nc2cnc3ccsc3c2n1[C@H]1CC[C@H](CC#N)OC1 [Example 1, ((2R,5S)-5-{2-[(1R)-1-hydroxyethyl]-1H-imidazo[4,5-d]thieno[3,2-b]pyridin-1-yl}tetrahydro-2H-pyran-2-yl)acetonitrile]",,>10
"C[C@H](O)CNCc1cc(OC2CCN([C@H]3C[C@](CC#N)(n4cc(-c5ncnc6[nH]ccc56)cn4)C3)CC2)nc(C(F)(F)F)c1 [Example 25, {trans-3-(4-{[4-({[(2S)-2-hydroxypropyl]amino}methyl)-6-(trifluoromethyl)pyridin-2-yl]oxy}piperidin-1-yl)-1-[4-(7H-pyrrolo[2,3-d]pyrimidin-4-yl)-1H-pyrazol-1-yl]cyclobutyl}acetonitrile]",> 8.00,>10
N#CC[C@]1(n2cc(-c3ncnc4[nH]ccc34)cn2)C[C@H](N2CCC(Oc3cc(CN4CCC[C@H]4CO)cc(C(F)(F)F)n3)CC2)C1 [Example 12],> 8.00,>10
"N#CCC1(n2cc(-c3ncnc4[nH]ccc34)cn2)CN(C2CCN(C(=O)Nc3ccc(F)cc3C(F)(F)F)CC2)C1 [Example 8, 4-{3-(Cyanomethyl)-3-[4-(7H-pyrrolo[2,3-d]pyrimidin-4-yl)-1H-pyrazol-1-yl]azetidin-1-yl}-N-[4-fluoro-2-(trifluoromethyl)phenyl] piperidine-1-carboxamide]",> 8.00,>10
"N#CCC(C1CCN(c2nc3cccnc3o2)C1)n1cc(-c2ncnc3[nH]ccc23)cn1 (stereo not shown) [Example 4, 3-(1-[1,3]oxazolo[5,4-b]pyridin-2-ylpyrrolidin-3-yl)-3-[4-(7H-pyrrolo[2,3-. d]pyrimidin-4-yl)-1H-pyrazol-1-yl]propanenitrile]",> 8.00,>10
"N#CC[C@]1(n2cc(-c3ncnc4[nH]ccc34)cn2)C[C@H](N2CCN(C(=O)c3ccnc(C(F)(F)F)n3)CC2)C1 [Example 10, [trans-1-[4-(7H-pyrrolo[2,3-d]pyrimidin-4-yl)-1H-pyrazol-1-yl]-3-(4-{[2-(trifluoromethyl)pyrimidin-4-yl]carbonyl}piperazin-1-yl)cyclobutyl]acetonitrile]",> 8.00,>10
"N#CC[C@]1(n2cc(-c3ncnc4[nH]ccc34)cn2)C[C@H](N2CCC(Oc3cc(CN4CCC[C@@H]4CO)cc(C(F)(F)F)n3)CC2)C1 [Example 13, {trans-3-(4-{[4-{[(2R)-2-(hydroxymethyl)pyrrolidin-1-yl]methyl}-6-(trifluoromethyl)pyridin-2-yl]oxy}piperidin-1-yl)-1-[4-(7H-pyrrolo[2,3-d]pyrimidin-4-yl)-1H-pyrazol-1-yl]cyclobutyl}acetonitrile]",> 8.00,>10
"N#CCC1(n2cc(-c3ncnc4[nH]ccc34)cn2)CN(C2CCN(C(=O)c3ccnc(C(F)(F)F)c3F)CC2)C1 [Example 7, {1-{1-[3-Fluoro-2-(trifluoromethyl)isonicotinoyl]piperidin-4-yl}-3-[4-(7H-pyrrolo[2,3-d]pyrimidin-4-yl)-1H-pyrazol-1-yl]azetidin-3-yl}acetonitrile]",> 8.00,>10

# Second part, the compound after the results:
pIC50 (JAK1),JAK2/JAK1 (JAK2),SMILES
> 8.00,>10,"CCNCc1cc(O[C@H]2CC[C@@H](N3CC(CC#N)(n4cc(-c5ncnc6[nH]ccc56)cn4)C3)CC2)nc(C(F)(F)F)c1 [Example 19, {1-(cis-4-{[4-[(ethylamino)methyl]-6-(trifluoromethyl)pyridin-2-yl]oxy}cyclohexyl)-3-[4-(7H-pyrrolo[2,3-d]pyrimidin-4-yl)-1H-pyrazol-1-yl]lazetidin-3-yl}acetonitrile]"
> 8.00,>10,"N#CCC(CN1CCN(C(=O)c2ccc(C#N)cc2F)CC1)n1ccc(-c2ncnc3[nH]ccc23)c1 (stereo not shown) [Example 6, 4-[(4-{3-cyano-2-[3-(7H-pyrrolo[2,3-d]pyrimidin-4-yl)-1H-pyrrol-1-yl]propyl}piperazin-1-yl)carbonyl]-3-fluorobenzonitrile]"
> 8.00,>10,"N#CCC(C1CCN(c2cccc(Cl)n2)C1)n1cc(-c2ncnc3[nH]ccc23)cn1 (single isomer, unassigned) [Example 3, 3-[1-(6-chloropyridin-2-yl)pyrrolidin-3-yl]-3-[4-(7H-pyrrolo[2,3-d]pyrimidin-4-yl)-1H-pyrazol-1-yl]propanenitrile]"
> 8.00,>10,"C[C@@H](CO)NCc1cc(OC2CCN([C@H]3C[C@](CC#N)(n4cc(-c5ncnc6[nH]ccc56)cn4)C3)CC2)nc(C(F)(F)F)c1 [Example 23, {trans-3-(4-{[4-({[(1S)-2-hydroxy-1-methylethyl]amino}methyl)-6-(trifluoromethyl)pyridin-2-yl]oxy}piperidin-1-yl)-1-[4-(7H-pyrrolo[2,3-d]pyrimidin-4-yl)-1H-pyrazol-1-yl]cyclobutyl}acetonitrile]"
> 8.00,>10,"N#CC[C@]1(n2cc(-c3ncnc4[nH]ccc34)cn2)C[C@H](N2CCC(Oc3cc(CN4CC(O)C4)cc(C(F)(F)F)n3)CC2)C1 [Example 11, {trans-3-(4-{[4-[(3-hydroxyazetidin-1-yl)methyl]-6-(trifluoromethyl)pyridin-2-yl]oxy}piperidin-1-yl)-1-[4-(7H-pyrrolo[2,3-d]pyrimidin-4-yl)-1H-pyrazol-1-yl]cyclobutyl}acetonitrile]"
> 8.00,>10,N#CCC1(n2cc(-c3ncnc4[nH]ccc34)cn2)CN([C@H]2CC[C@@H](Oc3cc(CN4CC[C@@H](O)C4)cc(C(F)(F)F)n3)CC2)C1 [Example 21]
> 8.00,>10,"N#CCC1(n2cc(-c3ncnc4[nH]ccc34)cn2)CN([C@H]2CC[C@@H](Oc3cc(CN4CC[C@H](O)C4)cc(C(F)(F)F)n3)CC2)C1 [Example 22, {1-(cis-4-{[4-{[(3S)-3-hydroxypyrrolidin-1-yl]methyl}-6-(trifluoromethyl)pyridin-2-yl]oxy}cyclohexyl)-3-[4-(7H-pyrrolo[2,3-d]pyrimidin-4-yl)-1H-pyrazol-1-yl]azetidin-3-yl}acetonitrile]"
> 8.00,>10,"CC(C)(O)c1cc(O[C@H]2CC[C@@H](N3CC(CC#N)(n4cc(-c5ncnc6[nH]ccc56)cn4)C3)CC2)nc(C(F)(F)F)c1 [Example 20, {1-(cis-4-{[4-(1-hydroxy-1-methylethyl)-6-(trifluoromethyl)pyridin-2-yl]oxy}cyclohexyl)-3-[4-(7H-pyrrolo[2,3-d]pyrimidin-4-yl)-1H-pyrazol-1-yl]azetidin-3-yl}acetonitrile]"
> 8.00,>10,"N#CCC1(n2cc(-c3ncnc4[nH]ccc34)cn2)CN([C@H]2CC[C@@H](Oc3cc(CCO)nc(C(F)(F)F)n3)CC2)C1 [Example 18, {1-(cis-4-{[6-(2-hydroxyethyl)-2-(trifluoromethyl)pyrimidin-4-yl]oxy}cyclohexyl)-3-[4-(7H-pyrrolo[2,3-d]pyrimidin-4-yl)-1H-pyrazol-1-yl]azetidin-3-yl}acetonitrile]"
> 8.00,>10,"C[C@H](NC(=O)c1cc(F)c(N2CC(CC#N)(n3cc(-c4ncnc5[nH]ccc45)cn3)C2)cc1F)C(F)(F)F [Example 16, 4-{3-(cyanomethyl)-3-[4-(7H-pyrrolo[2,3-d]pyrimidin-4-yl)-1H-pyrazol-1-yl]azetidin-1-yl}-2,5-difluoro-N-[(1S)-2,2,2-trifluoro-1-methylethyl]benzamide]"
> 8.00,>10,"N#CCC(CN1CCN(C(=O)c2ccc(C#N)cc2F)CC1)n1cc(-c2ncnc3[nH]ccc23)cn1 (stereo not shown) [Example 5, 4-[(4-{3-cyano-2-[4-(7H-pyrrolo[2,3-d]pyrimidin-4-yl)-1H-pyrazol-1-yl)propyl}piperazin-1-yl)carbonyl]-3-fluorobenzonitrile]"
> 8.00,>10,"C[C@@H](O)CNCc1cc(OC2CCN([C@H]3C[C@](CC#N)(n4cc(-c5ncnc6[nH]ccc56)cn4)C3)CC2)nc(C(F)(F)F)c1 [Example 24, {trans-3-(4-{[4-({[(2R)-2-hydroxypropyl]amino}methyl)-6-(trifluoromethyl)pyridin-2-yl]oxy}piperidin-1-yl)-1-[4-(7H-pyrrolo[2,3-d]pyrimidin-4-yl)-1H-pyrazol-1-yl]cyclobutyl}acetonitrile]"
> 8.00,>10,"N#CCC1(n2cc(-c3ncnc4[nH]ccc34)cn2)CN(C2CCN(C(=O)c3ccnc(C(F)(F)F)n3)CC2)C1 [Example 9, [3-[4-(7H-pyrrolo[2,3-d]pyrimidin-4-yl)-1H-pyrazol-1-yl]-1-(1-{[2,- (trifluoromethyl)pyrimidin-4-yl]carbonyl}piperidin-4-yl)azetidin-3-yl]acetonitrile]"

# From patent US10336759B2, “Salts and processes of preparing a PI3K inhibitor” (Incyte Corporation, priority 2015, dated 2019)
